Data from patent US10645928B2, “Pesticidally active polycyclic derivatives with sulfur containing substituents” (Syngenta Participations AG, priority 2014, dated 2020).

Legend:
Format in all cases: in vivo
[1] = system: Plutella xylostella (Diamond Back Moth); assay: Example B13: Plutella xylostella, treated artificial diet, mortality and growth inhibition; conditions: 120 h, application rate of 200 ppm, L2 larvae, 5 days after infestation, read-out: effect in at least one of the two categories (mortality or growth inhibition)
Experimental: (§1) 24-well microtiter plates with artificial diet were treated with aqueous test solutions prepared from 10,000 ppm DMSO stock solutions by pipetting. After drying, the plates were infested with L2 larvae (10 to 15 per well). The samples were assessed for mortality and growth inhibition in comparison to untreated samples 5 days after infestation.

[2] = system: Spodoptera littoralis (Egyptian Cotton Leaf Worm); assay: Example B19: Spodoptera littoralis, compound in agar absorbed by lettuce roots, anti-feedant effect; conditions: 144 h, test rate of 12.5 ppm, uptake by lettuce roots, Spodoptera eggs, 6 days after infestation, read-out: anti-feeding
Excerpt: (§2) Test compounds were applied by pipette prepared from 10,000 ppm DMSO stock solutions into 24-well plates and mixed with agar. Lettuce seeds were placed onto the agar and the multi well plate was closed by another plate which contained also agar. After 7 days the compound was absorbed by the roots and the lettuce grew into the lid plate. The lettuce leaves were then cut off into the lid plate. Spodoptera eggs were pipetted through a plastic stencil onto a humid gel blotting paper and the lid plate was closed with it. The samples were assessed for anti-feedant effect in comparison to untreated samples 6 days after infestation.

[3] = system: Spodoptera littoralis (Egyptian Cotton Leaf Worm); assay: Example B20: Spodoptera littoralis, compound in agar absorbed by lettuce roots, mortality; conditions: 144 h, test rate of 12.5 ppm, uptake by lettuce roots, Spodoptera eggs, 6 days after infestation
Excerpt: Test compounds were applied by pipette prepared from 10,000 ppm DMSO stock solutions into 24-well plates and mixed with agar. Lettuce seeds were placed onto the agar and the multi well plate was closed by another plate which contained also agar. After 7 days the compound was absorbed by the roots and the lettuce grew into the lid plate. The lettuce leaves were then cut off into the lid plate.
Spodoptera eggs were pipetted through a plastic stencil onto a humid gel blotting paper and the lid plate was closed with it. The samples were assessed for mortality 6 days after infestation.

[4] = system: Spodoptera littoralis (Egyptian Cotton Leaf Worm); assay: Example B18: Spodoptera littoralis, compound in agar absorbed by lettuce roots, mortality, anti-feedant effect and growth inhibition; conditions: 144 h, test rate of 12.5 ppm, uptake by lettuce roots, Spodoptera eggs, 6 days after infestation, read-out: effect in at least one of the three categories (mortality, anti-feeding, or growth inhibition)
Excerpt: as §2, with “pipette” for “pipette prepared”, “for mortality,” for “for”, “effect and growth inhibition” for “effect”

[5] = system: Diabrotica balteata (Corn Root Worm); assay: Example B2: Diabrotica balteata, sprayed maize sprouts, mortality and growth inhibition; conditions: 96 h, application rate of 200 ppm, L2 larvae, 4 days after infestation, read-out: effect in at least one of the two categories (mortality or growth inhibition)
Experimental: as §1, with “Maize sprouts placed onto an agar layer in 24-well” for “24-well”, “plates” for “plates with artificial diet”, “spraying.” for “pipetting.”, “(6” for “(10”, “10” for “15”, “4” for “5”

[6] = system: Spodoptera littoralis (Egyptian Cotton Leaf Worm); assay: Example B17: Spodoptera littoralis, sprayed cotton leaf discs, mortality, anti-feeding effect and growth inhibition; conditions: foliar, 72 h, application rate of 200 ppm, L1 larvae, 3 days after infestation, read-out: control (at least one of mortality, anti-feedant effect, growth inhibition)
Experimental: (§3) Cotton leaf discs were placed onto agar in 24-well microtiter plates and sprayed with aqueous test solutions prepared from 10,000 ppm DMSO stock solutions. After drying the leaf discs were infested with five L1 larvae. The samples were assessed for mortality, anti-feeding effect, and growth inhibition in comparison to untreated samples 3 days after infestation. Control of Spodoptera littoralis by a test sample is given when at least one of the categories mortality, anti-feedant effect, and growth inhibition is higher than the untreated sample.

[7] = system: Euschistus heros (Neotropical Brown Stink Bug); assay: Example B6: Euschistus heros, sprayed soybean leaves, mortality and growth inhibition; conditions: 120 h, application rate of 200 ppm, N2 nymphs, 5 days after infestation, read-out: effect in at least one of the two categories (mortality or growth inhibition)
Experimental: Soybean leaves on agar in 24-well microtiter plates were sprayed with aqueous test solutions prepared from 10,000 ppm DMSO stock solutions. After drying the leaves were infested with N2 nymphs. The samples were assessed for mortality and growth inhibition in comparison to untreated samples 5 days after infestation.

[8] = system: Bemisia tabaci (Cotton White Fly); assay: Example B1: Bemisia tabaci, sprayed cotton leaf discs, mortality; conditions: foliar, 144 h, application rate of 200 ppm, adult white flies, 6 days after incubation
Experimental: Cotton leaf discs were placed on agar in 24-well microtiter plates and sprayed with aqueous test solutions prepared from 10,000 ppm DMSO stock solutions. After drying the leaf discs were infested with adult white flies. The samples were checked for mortality 6 days after incubation.

[9] = system: Spodoptera littoralis (Egyptian Cotton Leaf Worm); assay: Example B14: Spodoptera littoralis, sprayed cotton leaf discs, anti-feeding effect; conditions: foliar, 72 h, application rate of 200 ppm, L1 larvae, 3 days after infestation
Experimental: as §3, with “for” for “for mortality,”, “effect” for “effect, and growth inhibition”, “when” for “when at least one of”, “the” for “the categories mortality,”

[10] = system: Plutella xylostella (Diamond Back Moth); assay: Example B12: Plutella xylostella, treated artificial diet, mortality; conditions: 120 h, application rate of 200 ppm, L2 larvae, 5 days after infestation
Experimental: 24-well microtiter plates with artificial diet were treated with aqueous test solutions prepared from 10,000 ppm DMSO stock solutions by pipetting. After drying, the plates were infested with L2 larvae (10 to 15 per well). The samples were assessed for mortality 5 days after infestation.

[11] = system: Frankliniella occidentalis (Western Flower Thrips); assay: Example B7: Frankliniella occidentalis, sprayed sunflower leaf discs, mortality; conditions: foliar, 168 h, application rate of 200 ppm, population of mixed ages, 7 days after infestation
Experimental: Sunflower leaf discs were placed on agar in 24-well microtiter plates and sprayed with aqueous test solutions prepared from 10,000 DMSO stock solutions. After drying the leaf discs were infested with a Frankliniella population of mixed ages. The samples were assessed for mortality 7 days after infestation.

[12] = system: Spodoptera littoralis (Egyptian Cotton Leaf Worm); assay: Example B16: Spodoptera littoralis, sprayed cotton leaf discs, mortality; conditions: foliar, 72 h, application rate of 200 ppm, L1 larvae, 3 days after infestation
Experimental: Cotton leaf discs were placed onto agar in 24-well microtiter plates and sprayed with aqueous test solutions prepared from 10,000 ppm DMSO stock solutions. After drying the leaf discs were infested with five L1 larvae. The samples were assessed for mortality 3 days after infestation.

[13] = system: Euschistus heros (Neotropical Brown Stink Bug); assay: Example B5: Euschistus heros, sprayed soybean leaves, mortality; conditions: 120 h, application rate of 200 ppm, N2 nymphs, 5 days after infestation
Experimental: Soybean leaves on agar in 24-well microtiter plates were sprayed with aqueous test solutions prepared from 10,000 ppm DMSO stock solutions. After drying the leaves were infested with N2 nymphs. The samples were assessed for mortality 5 days after infestation.

[14] = system: Spodoptera littoralis (Egyptian Cotton Leaf Worm); assay: Example B15: Spodoptera littoralis, sprayed cotton leaf discs, growth inhibition; conditions: foliar, 72 h, application rate of 200 ppm, L1 larvae, 3 days after infestation, read-out: control (growth inhibition)
Experimental: as §3, with “for” for “for mortality, anti-feeding effect, and”, “when” for “when at least one of”, “the” for “the categories mortality, anti-feedant effect, and”

[15] = system: Plutella xylostella (Diamond Back Moth); assay: Example B10: Plutella xylostella, treated artificial diet, growth inhibition; conditions: 120 h, application rate of 200 ppm, L2 larvae, 5 days after infestation
Experimental: as §1, with “for” for “for mortality and”, “infestation. Control of Plutella xylostella by a test sample is given when the growth inhibition is higher than the untreated sample.” for “infestation.”

[16] = system: Aedes aegypti (Yellow Fever Mosquito); assay: Example B23: Aedes aegypti, dry deposits in 12 well tissue culture plates, control; conditions: application rate of 200 ppm in ethanol, adult females, after 48 h and/or 24 h
Experimental: Test solutions, at an application rate of 200 ppm in ethanol, were applied to 12 well tissue culture plates. Once the deposits were dry, five, two to five day old adult female Aedes aegypti were added to each well, and sustained with a 10% sucrose solution in a cotton wool plug. Assessment of knockdown was made one hour after introduction, and mortality was assessed at 24 and 48 hours after introduction.

[17] = system: Diabrotica balteata (Corn Root Worm); assay: Example B3: Diabrotica balteata, sprayed maize sprouts, mortality; conditions: 96 h, application rate of 200 ppm, L2 larvae, 4 days after infestation
Experimental: Maize sprouts placed onto an agar layer in 24-well microtiter plates were treated with aqueous test solutions prepared from 10,000 ppm DMSO stock solutions by spraying. After drying, the plates were infested with L2 larvae (6 to 10 per well). The samples were assessed for mortality 4 days after infestation.

[18] = system: Myzus persicae (Green Peach Aphid); assay: Example B8: Myzus persicae, sprayed sunflower leaf discs, mortality; conditions: foliar, 144 h, application rate of 200 ppm, leaf disc spray, aphid population of mixed ages, 6 days after infestation
Experimental: Sunflower leaf discs were placed onto agar in a 24-well microtiter plate and sprayed with aqueous test solutions prepared from 10,000 ppm DMSO stock solutions. After drying, the leaf discs were infested with an aphid population of mixed ages. The samples were assessed for mortality 6 days after infestation.

CCS(=O)(=O)c1cc(-c2ccc(Cl)cc2)cnc1-c1cn2cnc(C(F)(F)C(F)(F)F)cc2n1 [Compound P15]
≥ 80%: percent effect (mortality or growth inhibition) at 200 ppm [1] | pest or weed control at 12.5 ppm [2] | mortality at 12.5 ppm [3] | percent effect (mortality, anti-feeding or growth inhibition) at 12.5 ppm [4] | percent effect (mortality or growth inhibition) at 200 ppm [5] | percent control (mortality, anti-feedant effect or growth inhibition) at 200 ppm [6] | percent effect (mortality or growth inhibition) at 200 ppm [7] | mortality at 200 ppm [8] | pest or weed control at 200 ppm [9] | mortality at 200 ppm [10] | mortality at 200 ppm [11] | mortality at 200 ppm [12] | mortality at 200 ppm [13]

CCS(=O)(=O)c1cc(-c2cccc(SC)c2)cnc1-c1cn2cnc(C(F)(F)F)cc2n1 [Compound P9]
≥ 80%: percent effect (mortality or growth inhibition) at 200 ppm [1] | inhibition at 200 ppm [14] | percent effect (mortality or growth inhibition) at 200 ppm [5] | percent control (mortality, anti-feedant effect or growth inhibition) at 200 ppm [6] | percent effect (mortality or growth inhibition) at 200 ppm [7] | inhibition at 200 ppm [15] | pest or weed control at 200 ppm [16] | pest or weed control at 200 ppm [9] | mortality at 200 ppm [10] | mortality at 200 ppm [12] | mortality at 200 ppm [17] | mortality at 200 ppm [13]

CCS(=O)(=O)c1cc(C2CC2)cnc1-c1cn2cnc(C(F)(F)F)cc2n1 [Compound P16, 2-(5-cyclopropyl-3-ethylsulfonyl-2-pyridyl)-7-(trifluoromethyl)imidazo [1,2-c]pyrimidine]
≥ 80%: percent effect (mortality or growth inhibition) at 200 ppm [1] | inhibition at 200 ppm [14] | percent effect (mortality or growth inhibition) at 200 ppm [5] | mortality at 200 ppm [18] | percent control (mortality, anti-feedant effect or growth inhibition) at 200 ppm [6] | percent effect (mortality or growth inhibition) at 200 ppm [7] | inhibition at 200 ppm [15] | pest or weed control at 200 ppm [16] | pest or weed control at 200 ppm [9] | mortality at 200 ppm [10] | mortality at 200 ppm [11] | mortality at 200 ppm [12] | mortality at 200 ppm [17] | mortality at 200 ppm [13]

CCS(=O)(=O)c1cc(-n2ccc(C(F)(F)F)n2)cnc1-c1cn2cnc(C(F)(F)F)cc2n1 [Compound P4, 2-[3-ethylsulfonyl-5-[3-(trifluoromethyl)pyrazol-1-yl]-2-pyridyl]-7-(trifluoromethyl)imidazo[1,2-c]pyrimidine]
≥ 80%: percent effect (mortality or growth inhibition) at 200 ppm [1] | pest or weed control at 12.5 ppm [2] | mortality at 12.5 ppm [3] | percent effect (mortality, anti-feeding or growth inhibition) at 12.5 ppm [4] | percent effect (mortality or growth inhibition) at 200 ppm [5] | percent control (mortality, anti-feedant effect or growth inhibition) at 200 ppm [6] | percent effect (mortality or growth inhibition) at 200 ppm [7] | pest or weed control at 200 ppm [16] | mortality at 200 ppm [8] | pest or weed control at 200 ppm [9] | mortality at 200 ppm [10] | mortality at 200 ppm [12] | mortality at 200 ppm [17] | mortality at 200 ppm [13]

CCS(=O)(=O)c1cc(-c2ccc(C#N)cc2)cnc1-c1cn2cnc(C(F)(F)F)cc2n1 [Compound P10]
≥ 80%: percent effect (mortality or growth inhibition) at 200 ppm [1] | inhibition at 200 ppm [14] | percent effect (mortality or growth inhibition) at 200 ppm [5] | percent control (mortality, anti-feedant effect or growth inhibition) at 200 ppm [6] | mortality at 200 ppm [8] | pest or weed control at 200 ppm [9] | mortality at 200 ppm [10] | mortality at 200 ppm [11] | mortality at 200 ppm [12] | mortality at 200 ppm [17]
